In patent publication US20080220069A1, “Long Acting Injectable Crystal Formulations of Estradiol Metabolites and Methods of Using Same” (PR PHARMACEUTICALS, INC., priority 2004, published 2008):

Experiments:
[1] = room temperature
[2] = In vivo pharmacokinetics of altered crystal form (hemi hydrate) of 2ME (Example 6); conditions: rat, 5 mg/rat subcutaneous, hemi hydrate crystals approx. 10 μm, by day 28
Experimental: A solution of 2-methoxyestradiol (2ME) (Tetrionics, Madison, Wis.) was made in n-methylpyrrolidone at a 10% w/v concentration. One volume of the 2ME solution was added to 1000 volumes of water stirring rapidly at 23° C. The mixture was allowed to stir prior to the addition of sodium dodecyl sulfate (SDS) to a final concentration of 0.1% w/v. The 2ME was collected by sedimentation and washed twice with 0.1% SDS.
(§1) On day 0, each animal in the treatment group (n=6) received 5 mg/rat of 2ME in 0.25 ml injection vehicle consisting of 0.5% w/v sodium carboxymethylcellulose containing 5% w/v mannitol and 0.05% w/v SDS by subcutaneous injection using a 1 cc syringe and a 1 inch, 20-gauge needle. On Day—3 blood was collected from all rats via the tail vein. Rats were bled periodically via the lateral tail vein. Plasma samples were extracted, derivatized, and 2ME concentration was measured using a qualified gas chromatography-mass spectroscopy detection method. Plasma concentrations versus time are plotted in FIG. 2.

[3] = In vivo pharmacokinetics of 2ME particles ranging from 90 to 180 micrometers (Example 7); conditions: rat, 5 mg/rat subcutaneous, particles 90 to 180 micrometers
Experimental: as §1, with “A portion of the 2-methoxyestradiol prepared in Example 1 was ground in a mortar and pestle and sieved through stainless steel screens to generate a population of particles ranging from 90 to 180 micrometers. On day” for “On day”, “in FIG. 3.” for “in FIG. 2.”

[4] = In vivo pharmacokinetics of 2ME crystal preparation with broad size distribution (Example 2), plasma 2ME by gas chromatography-mass detection; conditions: rat, 5 mg/rat subcutaneous
Experimental: The material generated in Example 1 was ground in a mortar and pestle, sieved through a 180 um screen, and the particle size distribution of the sieved material was measured on a Coulter LS13320 Particle Size analyzer.
On day 0, animals in all treatment groups received 5 mg/rat of 2ME in 0.25 ml injection vehicle consisting of 2.0% w/v sodium carboxymethylcellulose containing 0.01% w/v Tween 80 and 0.1% w/v SDS by subcutaneous injection using a 1 cc syringe and a 1″, 20-gauge needle. On Day—3 blood was collected from all rats via the tail vein. On Days 1, 3, 7, 21, 28, and 35, all rats were bled via the lateral tail vein. Plasma samples were extracted, derivatized, and 2ME concentration was measured using a qualified gas chromatography-mass detection method. The plasma concentration profile of 2ME released from crystals with a broad size distribution is characterized by an initial burst followed by sustained blood levels of approximately 5 ng/ml between days 3 and 28.

[5] = rat, 16 mg subcutaneous in 2.5% w/v sodium carboxymethylcellulose, after 15 days

## C[C@]12CC[C@@H]3c4cc(O)c(O)cc4CC[C@H]3[C@@H]1CC[C@@H]2O [2-hydroxyestradiol]
[1]
  water solubility: approximately 0.155 mg/ml

## COc1cc2c(cc1O)CC[C@@H]1[C@@H]2CC[C@]2(C)[C@@H](O)CC[C@@H]12 [2ME, 2-methoxyestradiol]
[2]
  plasma 2ME concentrations: fallen to zero
[3]; day 51
  2ME in plasma: still measurable
[3]; first week
  initial plasma concentrations: low initial plasma concentrations
[4]; crystals 48.98±36.95 μm, between days 3 and 28
  sustained blood levels of 2ME: approximately 5 ng/ml
[4]; crystals 48.98±36.95 μm, by day 35
  2ME blood levels: fallen to zero
[4]; crystals with a broad size distribution
  plasma concentration profile, initial phase: initial burst

## COc1cc2c(cc1OC(=O)c1ccccc1)CC[C@@H]1[C@@H]2CC[C@]2(C)[C@@H](O)CC[C@@H]12 [3-benzoyl-2-methoxyestradiol]
[5]
  release of the injected dose (chromatographic analysis of dissected injection site): 6.2%±1.2
[1]; same conditions as parent
  water solubility of the esterified compound, fold lower than parent estradiol metabolite: approximately 3 fold
